Experiments:
in vivo [1] = conditions: mouse, po, 10 mg/kg
in vivo [2] = conditions: mouse, po, 10 mg/kg; remark: listed apart in the source
in vivo [3] = conditions: mouse, iv, 1 mg/kg
in vivo [4] = conditions: mouse, iv, 1 mg/kg; remark: listed apart in the source
in vivo [5] = conditions: mouse, po, 10 mg/kg; remark: listed apart in the source

Cmax (in vivo [1]): 64 µM
AUC (in vivo [2]): 158 µM·h
clearance (in vivo [3]): 2.4 mL/min/kg
Vd (in vivo [4]): 0.57 L/kg
bioavailability (in vivo [5]): 52%
Structure (SMILES): O=C(O)c1cc2c(s1)-c1ccccc1CC2
